Measurements taken from PubChem BioAssay AID248 (DTP/NCI, 2004).
Where “and” joins values, the source holds several entries; their conditions need not be identical. Identical values can stand only once. Toxic doses and inconclusive results are not listed. No stated cut-off is given here; in the data, active means T/C of 150% or more; inactive means T/C below 125%.

Test system: L1210 leukemia ip in BDF1 mice, survival T/C
Experiment: NCI In Vivo Anticancer Drug Screen. Data for tumor model L1210 Leukemia (intraperitoneal) in B6D2F1 (BDF1) mice
Details: endpoint: mean survival time, vehicle: water, higher = longer survival
Procedure, shortened: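 Each compound was tested against a transplantable tumor grown in mice. The endpoint was survival, with treated animals benchmarked against vehicle controls as a simple ratio.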

Measured: T/C

O=C(NO)c1ccncc1
inactive: dose: 6.25 mg/kg/injection, schedule: Q03HX008 (ip) 96 % of control | dose: 12.5 mg/kg/injection, schedule: Q03HX008 (ip) 100 % of control | dose: 18.75 mg/kg/injection, schedule: Q03HX008 (ip) 95 % of control | dose: 25.0 mg/kg/injection, schedule: Q01DX005 (iv) 100 % of control | dose: 33.0 mg/kg/injection, schedule: Q#B X027 (sc) 98 % of control | dose: 50.0 mg/kg/injection, schedule: Q01DX005 (iv) 100 % of control and 105 % of control | dose: 50.0 mg/kg/injection, schedule: Q01DX009 (sc) 98 % of control | dose: 67.0 mg/kg/injection, schedule: Q#B X027 (ip) 98 % of control | dose: 100.0 mg/kg/injection, schedule: Q01DX005 (iv) 101 % of control and 102 % of control and 105 % of control | dose: 100.0 mg/kg/injection, schedule: Q01DX009 (ip) 94 % of control and 100 % of control | dose: 100.0 mg/kg/injection, schedule: Q01DX009 (sc) 93 % of control and 100 % of control | dose: 100.0 mg/kg/injection, schedule: Q01DX010 (ip) 106 % of control | dose: 125.0 mg/kg/injection, schedule: Q01DX001 (ip) 97 % of control | dose: 133.0 mg/kg/injection, schedule: Q#B X027 (ip) 103 % of control | dose: 134.0 mg/kg/injection, schedule: Q#B X027 (sc) 107 % of control | dose: 200.0 mg/kg/injection, schedule: Q01DX001 (ip) 107 % of control | dose: 200.0 mg/kg/injection, schedule: Q01DX005 (ip) 101 % of control | dose: 200.0 mg/kg/injection, schedule: Q01DX005 (iv) 100 % of control and 101 % of control | dose: 200.0 mg/kg/injection, schedule: Q01DX009 (sc) 96 % of control | dose: 200.0 mg/kg/injection, schedule: Q01DX010 (ip) 107 % of control | dose: 200.0 mg/kg/injection, schedule: Q01DX Z (ip) 117 % of control | dose: 200.0 mg/kg/injection, schedule: Q02DX Z (ip) 114 % of control | dose: 200.0 mg/kg/injection, schedule: Q04DX003 (ip) 103 % of control | dose: 200.0 mg/kg/injection, schedule: Q08DX002 (ip) 103 % of control | dose: 200.0 mg/kg/injection, schedule: Q#A X030 (ip) 98 % of control | dose: 200.0 mg/kg/injection, schedule: Q#B X027 (ip) 122 % of control | dose: 200.0 mg/kg/injection, schedule: Q#B X027 (sc) 98 % of control | dose: 220.0 mg/kg/injection, schedule: Q01DX Z (ip) 111 % of control | dose: 222.0 mg/kg/injection, schedule: Q01DX015 (ip) 104 % of control | dose: 222.0 mg/kg/injection, schedule: Q01DX Z (ip) 105 % of control and 106 % of control and 119 % of control | dose: 225.0 mg/kg/injection, schedule: Q01DX Z (ip) 109 % of control | dose: 250.0 mg/kg/injection, schedule: Q01DX001 (ip) 94 % of control and 108 % of control | dose: 250.0 mg/kg/injection, schedule: Q01DX005 (iv) 97 % of control | dose: 250.0 mg/kg/injection, schedule: Q01DX009 (oral) 96 % of control and 98 % of control | dose: 250.0 mg/kg/injection, schedule: Q01DX009 (sc) 93 % of control | dose: 250.0 mg/kg/injection, schedule: Q01DX015 (iv) 106 % of control | dose: 250.0 mg/kg/injection, schedule: Q03HX024 (ip) 100 % of control | dose: 267.0 mg/kg/injection, schedule: Q#B X027 (sc) 97 % of control | dose: 270.0 mg/kg/injection, schedule: Q01DX015 (ip) 121 % of control | dose: 300.0 mg/kg/injection, schedule: Q01DX015 (im) 93 % of control | dose: 300.0 mg/kg/injection, schedule: Q01DX Z (ip) 112 % of control | dose: 300.0 mg/kg/injection, schedule: Q02DX Z (ip) 112 % of control | dose: 300.0 mg/kg/injection, schedule: Q#A X030 (ip) 98 % of control | dose: 333.0 mg/kg/injection, schedule: Q01DX015 (ip) 119 % of control | dose: 333.0 mg/kg/injection, schedule: Q01DX Z (ip) 120 % of control | dose: 335.0 mg/kg/injection, schedule: Q01DX Z (ip) 97 % of control and 116 % of control | dose: 400.0 mg/kg/injection, schedule: Q01DX001 (ip) 100 % of control | dose: 400.0 mg/kg/injection, schedule: Q01DX005 (iv) 103 % of control | dose: 400.0 mg/kg/injection, schedule: Q01DX009 (sc) 100 % of control | dose: 400.0 mg/kg/injection, schedule: Q01DX015 (ip) 111 % of control | dose: 400.0 mg/kg/injection, schedule: Q01DX015 (sc) 104 % of control | dose: 400.0 mg/kg/injection, schedule: Q04DX003 (ip) 114 % of control | dose: 400.0 mg/kg/injection, schedule: Q08DX002 (ip) 105 % of control | dose: 500.0 mg/kg/injection, schedule: Q01DX001 (ip) 111 % of control and 113 % of control | dose: 500.0 mg/kg/injection, schedule: Q01DX005 (iv) 100 % of control | dose: 500.0 mg/kg/injection, schedule: Q01DX009 (oral) 93 % of control and 105 % of control | dose: 500.0 mg/kg/injection, schedule: Q01DX009 (sc) 94 % of control and 100 % of control | dose: 500.0 mg/kg/injection, schedule: Q01DX015 (im) 104 % of control | dose: 500.0 mg/kg/injection, schedule: Q01DX015 (ip) 121 % of control | dose: 500.0 mg/kg/injection, schedule: Q01DX015 (oral) 97 % of control | dose: 500.0 mg/kg/injection, schedule: Q03HX024 (ip) 98 % of control | dose: 600.0 mg/kg/injection, schedule: Q01DX001 (ip) 105 % of control | dose: 600.0 mg/kg/injection, schedule: Q01DX005 (ip) 101 % of control | dose: 600.0 mg/kg/injection, schedule: Q01DX005 (iv) 103 % of control | dose: 600.0 mg/kg/injection, schedule: Q01DX015 (sc) 98 % of control | dose: 600.0 mg/kg/injection, schedule: Q02DX Z (ip) 123 % of control | dose: 600.0 mg/kg/injection, schedule: Q03DX005 (ip) 108 % of control | dose: 600.0 mg/kg/injection, schedule: Q04DX003 (ip) 120 % of control | dose: 600.0 mg/kg/injection, schedule: Q08DX002 (ip) 105 % of control | dose: 750.0 mg/kg/injection, schedule: Q01DX009 (oral) 100 % of control | dose: 750.0 mg/kg/injection, schedule: Q01DX009 (sc) 111 % of control | dose: 750.0 mg/kg/injection, schedule: Q01DX015 (im) 113 % of control | dose: 750.0 mg/kg/injection, schedule: Q01DX015 (ip) 113 % of control | dose: 750.0 mg/kg/injection, schedule: Q03HX024 (ip) 96 % of control | dose: 800.0 mg/kg/injection, schedule: Q01DX005 (ip) 107 % of control | dose: 800.0 mg/kg/injection, schedule: Q01DX Z (ip) 114 % of control | dose: 800.0 mg/kg/injection, schedule: Q03DX005 (ip) 107 % of control | dose: 800.0 mg/kg/injection, schedule: Q08DX002 (ip) 111 % of control | dose: 900.0 mg/kg/injection, schedule: Q01DX001 (ip) 105 % of control | dose: 1000.0 mg/kg/injection, schedule: Q01DX001 (ip) 106 % of control | dose: 1000.0 mg/kg/injection, schedule: Q01DX009 (oral) 102 % of control and 105 % of control | dose: 1000.0 mg/kg/injection, schedule: Q01DX015 (oral) 109 % of control | dose: 1000.0 mg/kg/injection, schedule: Q03HX024 (ip) 95 % of control | dose: 1100.0 mg/kg/injection, schedule: Q03DX005 (ip) 108 % of control | dose: 1500.0 mg/kg/injection, schedule: Q03HX024 (ip) 113 % of control
